Assay results taken from US20230295197A1, “STAT5 and STAT6 Degraders and Uses Thereof” (REGENTS OF THE UNIVERSITY OF MICHICAN, priority 2022, published 2023).
Read-outs that look alike come from different tables or passages of the source.

Target: T1, STAT6 (Homo sapiens, UniProt P42226)
T1 construct: endogenous in cells; host or cells: MOLM-16, KU-812, SKNO1, MB231, L1236
T1 sequence (P42226 1-847): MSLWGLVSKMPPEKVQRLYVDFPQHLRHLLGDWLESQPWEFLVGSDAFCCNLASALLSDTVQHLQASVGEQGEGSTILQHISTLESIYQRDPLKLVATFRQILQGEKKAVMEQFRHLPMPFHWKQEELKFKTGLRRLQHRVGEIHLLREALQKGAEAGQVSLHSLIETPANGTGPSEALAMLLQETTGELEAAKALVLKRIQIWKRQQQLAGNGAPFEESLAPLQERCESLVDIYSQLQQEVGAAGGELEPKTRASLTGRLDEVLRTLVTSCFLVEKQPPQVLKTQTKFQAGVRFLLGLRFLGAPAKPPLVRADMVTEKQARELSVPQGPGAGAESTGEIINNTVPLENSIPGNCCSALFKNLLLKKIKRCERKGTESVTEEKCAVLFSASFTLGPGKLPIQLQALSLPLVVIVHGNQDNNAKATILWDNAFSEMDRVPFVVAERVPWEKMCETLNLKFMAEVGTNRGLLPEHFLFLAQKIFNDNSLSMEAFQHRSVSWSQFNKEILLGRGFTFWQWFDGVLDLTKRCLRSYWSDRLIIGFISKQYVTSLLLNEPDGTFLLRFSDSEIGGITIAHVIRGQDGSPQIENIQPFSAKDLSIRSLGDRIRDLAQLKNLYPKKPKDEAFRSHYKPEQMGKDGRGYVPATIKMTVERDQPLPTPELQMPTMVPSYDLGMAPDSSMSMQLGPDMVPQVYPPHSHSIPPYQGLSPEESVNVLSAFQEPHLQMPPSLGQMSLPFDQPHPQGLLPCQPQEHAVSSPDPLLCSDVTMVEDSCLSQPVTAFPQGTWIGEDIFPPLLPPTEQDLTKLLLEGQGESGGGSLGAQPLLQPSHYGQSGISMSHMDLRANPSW
Assay: Immunoblotting (Western blot) analysis of STAT6 degradation efficiency of degraders in treated cells
Assay type: cell-based
How it was run: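 Treatment of cells with degraders at stated concentrations and exposure times comes first. Lysates are then equalised for total protein by BCA, and the proteins are separated, transferred and immunostained for STAT6 or STAT5 alongside GAPDH. Signal is quantified from infrared fluorescence.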

[1] = L1236 cells, read-out: DC50 S6 L1236
[2] = MOLM-16 cells, class symbols, read-out: DC50 S6 MOLM-16
[3] = MOLM-16 cells, numeric bound, read-out: DC50 S6 MOLM-16

Compound	DC50 [2] [µM]	DC50 [3] [µM]	DC50 [1] [µM]
Cc1ncsc1-c1ccc([C@H](C)NC(=O)[C@@H]2C[C@@H](O)CN2C(=O)[C@@H](NC(=O)CCNC(=O)CC(=O)N2CCN(C(=O)[C@@H](NC(=O)c3cc4cc(C(F)(F)P(=O)(O)O)ccc4s3)C(C)(C)C)[C@H](C(=O)N3CCC[C@H](c4ccccc4)C3)C2)C(C)(C)C)cc1 [Compound 453, (difluoro(2-(((S)-1-((S)-4-(3-((3-(((S)-1-((2S,4R)-4-hydroxy-2-(((S)-1-(4-(4-methylthiazol-5-yl)phenyl)ethyl)carbamoyl)pyrrolidin-1-yl)-3,3-dimethyl-1-oxobutan-2-yl)amino)-3-oxopropyl)amino)-3-oxopropanoyl)-2-((R)-3-phenylpiperidine-1-carbonyl)piperazin-1-yl)-3,3-dimethyl-1-oxobutan-2-yl)carbamoyl)benzo[b]thiophen-5-yl)methyl)phosphonic acid]	> 10		> 10
Cc1ncsc1-c1ccc([C@H](C)NC(=O)[C@@H]2C[C@@H](O)CN2C(=O)[C@@H](NC(=O)CCCCCCCCCNC(=O)CC(=O)N2CCN(C(=O)[C@@H](NC(=O)c3cc4cc(C(F)(F)P(=O)(O)O)ccc4s3)C(C)(C)C)[C@H](C(=O)N3CCO[C@H](c4ccccc4)C3)C2)C(C)(C)C)cc1 [Compound 451, (difluoro(2-(((S)-1-((S)-4-(3-((10-(((S)-1-((2S,4R)-4-hydroxy-2-(((S)-1-(4-(4-methylthiazol-5-yl)phenyl)ethyl)carbamoyl)pyrrolidin-1-yl)-3,3-dimethyl-1-oxobutan-2-yl)amino)-10-oxodecyl)amino)-3-oxopropanoyl)-2-((R)-2-phenylmorpholine-4-carbonyl)piperazin-1-yl)-3,3-dimethyl-1-oxobutan-2-yl)carbamoyl)benzo[b]thiophen-5-yl)methyl)phosphonic acid]	> 10		> 10
CC(C)(C)[C@H](NC(=O)c1cc2cc(C(F)(F)P(=O)(O)O)ccc2s1)C(=O)N1Cc2cc(OCC(=O)NCCCCC#Cc3cccc4c3C(=O)N(C3CCC(=O)NC3=O)C4=O)ccc2C[C@H]1C(=O)N1CCO[C@H](c2ccccc2)C1 (stereo partly drawn) [Compound 541, ((2-(((2S)-1-((3S)-7-(2-((6-(2-(2,6-dioxopiperidin-3-yl)-1,3-dioxoisoindolin-4-yl)hex-5-yn-1-yl)amino)-2-oxoethoxy)-3-((R)-2-phenylmorpholine-4-carbonyl)-3,4-dihydroisoquinolin-2(1H)-yl)-3,3-dimethyl-1-oxobutan-2-yl)carbamoyl)benzo[b]thiophen-5-yl)difluoromethyl)phosphonic acid]	> 10		
Cc1ncsc1-c1ccc([C@H](C)NC(=O)[C@@H]2C[C@@H](O)CN2C(=O)[C@@H](NC(=O)CCCCCCNC(=O)COc2ccc3c(c2)CN(C(=O)[C@@H](NC(=O)c2cc4cc(C(F)(F)P(=O)(O)O)ccc4s2)C(C)(C)C)[C@H](C(=O)N2CCC[C@H](c4ccccc4)C2)C3)C(C)(C)C)cc1 [Compound 475, (difluoro(2-(((S)-1-((S)-7-(2-((7-(((S)-1-((2S,4R)-4-hydroxy-2-(((S)-1-(4-(4-methylthiazol-5-yl)phenyl)ethyl)carbamoyl)pyrrolidin-1-yl)-3,3-dimethyl-1-oxobutan-2-yl)amino)-7-oxoheptyl)amino)-2-oxoethoxy)-3-((R)-3-phenylpiperidine-1-carbonyl)-3,4-dihydroisoquinolin-2(1H)-yl)-3,3-dimethyl-1-oxobutan-2-yl)carbamoyl)benzo[b]thiophen-5-yl)methyl)phosphonic acid]	> 10		
CC(C)(C)[C@H](NC(=O)c1cc2cc(C(F)(F)P(=O)(O)O)ccc2s1)C(=O)N1Cc2cc(OCC(=O)NCCCCCC#Cc3cccc4c3C(=O)N(C3CCC(=O)NC3=O)C4=O)ccc2C[C@H]1C(=O)N1CCO[C@H](c2ccccc2)C1 (stereo partly drawn) [Compound 543, ((2-(((2S)-1-((3S)-7-(2-((7-(2-(2,6-dioxopiperidin-3-yl)-1,3-dioxoisoindolin-4-yl)hept-6-yn-1-yl)amino)-2-oxoethoxy)-3-((R)-2-phenylmorpholine-4-carbonyl)-3,4-dihydroisoquinolin-2(1H)-yl)-3,3-dimethyl-1-oxobutan-2-yl)carbamoyl)benzo[b]thiophen-5-y)difluoromethyl)phosphonic acid]	> 10		
CC(C)(C)[C@H](NC(=O)c1cc2cc(C(F)(F)P(=O)(O)O)ccc2s1)C(=O)N1C[C@@H](OCCCCCCCCC#Cc2cccc3c2CN(C2CCC(=O)NC2=O)C3=O)C[C@H]1C(=O)N1CCO[C@H](c2ccccc2)C1 (stereo partly drawn) [Compound 586, ((2-(((2S)-1-((2S,4S)-4-((10-(2-(2,6-dioxopiperidin-3-yl)-1-oxoisoindolin-4-yl)dec-9-yn-1-yl)oxy)-2-((R)-2-phenylmorpholine-4-carbonyl)pyrrolidin-1-yl)-3,3-dimethyl-1-oxobutan-2-yl)carbamoyl)benzo[b]thiophen-5-yl)difluoromethyl)phosphonic acid]	< 0.1		1 to 10
CC(C)(C)[C@H](NC(=O)c1cc2cc(C(F)(F)P(=O)(O)O)ccc2s1)C(=O)N1Cc2cc(OCC(=O)NCC#Cc3cccc4c3C(=O)N(C3CCC(=O)NC3=O)C4=O)ccc2C[C@H]1C(=O)N1CCO[C@H](c2ccccc2)C1 (stereo partly drawn) [Compound 535, ((2-(((2S)-1-((3S)-7-(2-((3-(2-(2,6-dioxopiperidin-3-yl)-1,3-dioxoisoindolin-4-yl)prop-2-yn-1-yl)amino)-2-oxoethoxy)-3-((R)-2-phenylmorpholine-4-carbonyl)-3,4-dihydroisoquinolin-2(1H)-yl)-3,3-dimethyl-1-oxobutan-2-yl)carbamoyl)benzo[b]thiophen-5-yl)difluoromethyl)phosphonic acid]	0.1 to 1		
CC(C)(C)[C@H](NC(=O)c1cc2cc(C(F)(F)P(=O)(O)O)ccc2s1)C(=O)N1CCN(C(=O)CC(=O)NCCCCC#Cc2cccc3c2C(=O)N(C2CCC(=O)NC2=O)C3=O)C[C@H]1C(=O)N1CCC[C@H](c2ccccc2)C1 (stereo partly drawn) [Compound 527, ((2-(((2S)-1-((2S)-4-(3-((6-(2-(2,6-dioxopiperidin-3-yl)-1,3-dioxoisoindolin-4-yl)hex-5-yn-1-yl)amino)-3-oxopropanoyl)-2-((R)-3-phenylpiperidine-1-carbonyl)piperazin-1-yl)-3,3-dimethyl-1-oxobutan-2-yl)carbamoyl)benzo[b]thiophen-5-yl)difluoromethyl)phosphonic acid]	> 10		

Further lines, with some results ahead:

DC50 [2] [µM]	DC50 [3] [µM]	Compound	DC50 [1] [µM]
	> 0.3	CC(C)(C)[C@H](NC(=O)c1cc2cc(C(F)(F)P(=O)(O)O)ccc2s1)C(=O)N1C[C@@H](OCCN2CCC(C#Cc3cccc4c3CN(C3CCC(=O)NC3=O)C4=O)CC2)C[C@H]1C(=O)N1CCO[C@H](c2ccccc2)C1 (stereo partly drawn) [Compound 604, ((2-(((2S)-1-((2S,4S)-4-(2-(4-((2-(2,6-dioxopiperidin-3-yl)-1-oxoisoindolin-4-yl)ethynyl)piperidin-1-yl)ethoxy)-2-((R)-2-phenylmorpholine-4-carbonyl)pyrrolidin-1-yl)-3,3-dimethyl-1-oxobutan-2-yl)carbamoyl)benzo[b]thiophen-5-yl)difluoromethyl)phosphonic acid]	
	> 0.3	CC(C)(C)[C@H](NC(=O)c1cc2cc(C(F)(F)P(=O)(O)O)ccc2s1)C(=O)N1CCN(C(=O)CCCCCC#Cc2ccc3c(c2)CN(C2CCC(=O)NC2=O)C3=O)C[C@H]1C(=O)N1CCO[C@H](c2ccccc2)C1 (stereo partly drawn) [Compound 596, ((2-(((2S)-1-((2S)-4-(8-(2-(2,6-dioxopiperidin-3-yl)-1-oxoisoindolin-5-yl)oct-7-ynoyl)-2-((R)-2-phenylmorpholine-4-carbonyl)piperazin-1-yl)-3,3-dimethyl-1-oxobutan-2-yl)carbamoyl)benzo[b]thiophen-5-yl)difluoromethyl)phosphonic acid]	
< 0.1		CC(C)(C)[C@H](NC(=O)c1cc2cc(C(F)(F)P(=O)(O)O)ccc2s1)C(=O)N1C[C@@H](OCCCCCCCC#Cc2cccc3c2CN(C2CCC(=O)NC2=O)C3=O)C[C@H]1C(=O)N1CCO[C@H](c2ccccc2)C1 (stereo partly drawn) [Compound 595, ((2-(((2S)-1-((2S,4S)-4-((9-(2-(2,6-dioxopiperidin-3-yl)-1-oxoisoindolin-4-yl)non-8-yn-1-yl)oxy)-2-((R)-2-phenylmorpholine-4-carbonyl)pyrrolidin-1-yl)-3,3-dimethyl-1-oxobutan-2-yl)carbamoyl)benzo[b]thiophen-5-yl)difluoromethyl)phosphonic acid]	
